Measurements from US11458189B2, “Cytoprotective drugs” (BALMES TRANSPLANTATION, priority 2017, dated 2022).
Starred links: 1 amine or outer side, 2 acyl side, 3 side chain; linkers in the order of their positions; H or OH if unused. Positions of bridges follow the written chain, without caps; N, C: chain ends. Non-standard residues stand in square brackets, D forms with d. Residues, ends and D or L forms follow the SMILES beside them. ξ: configuration not given here. *: point of attachment. pTerphenylCO(4''-OnC5H11) = CCCCCOc1ccc(-c2ccc(-c3ccc(C(=O)*)cc3)cc2)cc1; Orn(4R-OH,5R-OH) = O=C([C@H](C[C@@H](O)[C@@H](O)N[*:3])N[*:1])[*:2]; hTyr(3S-OH,4S-OH) = N[C@H](C(=O)O)[C@H](O)[C@@H](O)c1ccc(O)cc1; Pro(3S-OH,4S-Me) = C[C@H]1CN[C@H](C(=O)O)[C@H]1O; ξPro(4R-OH) = O=C(O)C1C[C@@H](O)CN1

System: Human Astrocytes (HA)
Experiment: Oxygen and glucose deprivation followed by replenishment, cell survival (calcein AM), HA
Type: cell-based
Method: Anidulafungin and micafungin were tested on Human Renal Glomerular Endothelial Cells (HRGEC, Innoprot P10665), on Human Renal Proximal Tubular Epithelial Cells (HRPTEpiC, Innoprot P10662), on Human Astrocytes (HA, caltag SC-1800), on Human Cardiac Microvascular Endothelial Cells (HCMEC, Caltag SC-6000), on Human Hepatic Sinusoidal Endothelial Cells (HHSEC, Caltag SC-5000), on Rat Primary Kidney Glomerular Endothelial cells (Cellbiologics, RN-6014G) and on Bovine Brain Microvascular Endothelial Cells (BBMEC, Caltag SC-B100).
In a first phase, these isolated, purified and cryopreserved cells are thawed and multiplied according to the supplier's recommendations in T75 or T175 flasks pre-coated with 2 μg of fibronectin/[…] (CORNING) for HRGEC, HCMEC, HHSEC and BBMEC, or 2 μg poly-L-lysin/cm^2 (Caltag SC-0403) for HRPTEpiC and HA, or 15 mL/flask 175 cm^2 gelatin-based solution (Cellbiologics) in the presence of endothelial cell supplemented growth medium ECM (P60104, INNOPROT, Caltag, SC-1001) for HRGEC, HCMEC, HHSEC, RPKGEC or BBMEC, or astrocyte cell supplemented growth medium AM (Caltag SC-1801) for HA or epithelial cell supplemented growth medium EpiCM (P60106, INNOPROT) for HRPTEpiC, at 37° C. under 5% CO2 and saturated humidity until their confluency. They are then harvested by trypsinization according to the method described by the supplier for exactly 5 minutes and then reseeded in new flasks a maximum of three times.
To carry out the oxygen and glucose deprivation test followed by their replenishment, the cells will be seeded in 96-well black plates with transparent flat bottom (GREINER). Once a sufficient number of cells has been obtained to allow seeding of 2000 to 15000 cells per well of 96-well plates depending on the cell type, the cells are seeded in these 96-well plates previously coated with an extracellular matrix as listed above for the flasks. The cells are cultured for 5 to 8 days according to the cell type, in the presence of the same growth medium as in the flask as described above except for HRGEC and HRPTEpiC for which DMEM (DUTSCHER) with 1 g/L of supplemented glucose is used, at 37° C. under 5% CO2 and saturated humidity to obtain confluency.
On the first day of oxygen and glucose deprivation, (5th, 6th, 7th or 8th day of culture), the culture conditions are drastically changed. The medium of all plates is removed and replaced by DMEM (DUTSCHER) medium without glucose and supplemented only with 1% penicillin-streptomycin (DUTSCHER). Anidulafungin or micafungin dissolved in dimethyl sulfoxide (DMSO) is then added to each well at the desired concentration, resulting in a maximum of 1% DMSO, and the plates are placed under hypoxia at <1% 02 and 5% CO2 at 37° C. for 24 hours of culture. Each compound was tested in a concentration range.
After 24 hours, the growth medium is changed and replaced by a richer medium, DMEM (DUTSCHER) at 1 g/L glucose and 2% FBS (INNOPROT) and 1% penicillin-streptomycin (DUTSCHER). These media will have been pre-equilibrated at 37° C. in advance. The cells are then returned to culture at 37° C. under 20% 02 and 5% CO2 for 22h.
After 22 hours of reoxygenation, the potential protective effect of anidulafungin or micafungin is measured by a cell viability test using calcein AM (CORNING), which is a dye substrate. The calcein AM can easily cross the cell membrane of the viable cells. The AM ester groups mask the part of the molecule that chelates calcium. Once inside the cells, the (non-fluorescent) calcein AM is hydrolyzed to (fluorescent) calcein by endogenous esterases. The resulting calcein molecule binds to calcium inside the cell and remains trapped inside the cell. These molecules emit strong green fluorescence when subjected to […] of a particular wavelength (495 nm). Since dead cells lack esterase activity, only living cells are labelled.
This cell viability test is performed in two steps. […]

[1] = [Anidulafungin] log μM 0.1760913
[2] = [Anidulafungin] log μM 0.7781513
[3] = [Anidulafungin] log μM −0.1249387
[4] = [Anidulafungin] log μM −0.30103
[5] = [Anidulafungin] log μM −0.5228788

CCCCCOc1ccc(-c2ccc(-c3ccc(C(=O)N[C@H]4C[C@@H](O)[C@@H](O)NC(=O)[C@@H]5[C@@H](O)[C@@H](C)CN5C(=O)[C@H]([C@@H](C)O)NC(=O)[C@H]([C@H](O)[C@@H](O)c5ccc(O)cc5)NC(=O)C5C[C@@H](O)CN5C(=O)[C@H]([C@@H](C)O)NC4=O)cc3)cc2)cc1 (stereo partly drawn) [Anidulafungin] ({pTerphenylCO(4''-OnC5H11)}-[Orn(4R-OH,5R-OH)]T[ξPro(4R-OH)][hTyr(3S-OH,4S-OH)]T[Pro(3S-OH,4S-Me)]; lactam 1-C) was tested, and the “Globalfluo assay 1” value ([Anidulafungin] log μM 0) was 11468420 arbitrary units, the “Globalfluo assay 2” value ([Anidulafungin] log μM 0) was 12221770 arbitrary units and the “Globalfluo assay 3” value ([Anidulafungin] log μM 0) was 14645590 arbitrary units. The Mean globalfluo ([Anidulafungin] log μM 0) was 12778593 arbitrary units, the “Survival rate (%)” value ([Anidulafungin] log μM 0) was 15% and the “Globalfluo assay 1” value [1] was 11838960 arbitrary units. The “Globalfluo assay 2” value [1] was 12087610 arbitrary units, the “Globalfluo assay 3” value [1] was 13326480 arbitrary units and the Mean globalfluo [1] was 12417683 arbitrary units. For the same molecule, the “Survival rate (%)” value [1] was 13%, the “Globalfluo assay 1” value ([Anidulafungin] log μM 0.30103) was 13177930 arbitrary units and the “Globalfluo assay 2” value ([Anidulafungin] log μM 0.30103) was 13103050 arbitrary units. The “Globalfluo assay 3” value ([Anidulafungin] log μM 0.30103) was 13640130 arbitrary units, the Mean globalfluo ([Anidulafungin] log μM 0.30103) was 13307037 arbitrary units and the “Survival rate (%)” value ([Anidulafungin] log μM 0.30103) was 18%. For the same molecule, the “Globalfluo assay 1” value ([Anidulafungin] log μM 0.60206) was 12006890 arbitrary units, the “Globalfluo assay 2” value ([Anidulafungin] log μM 0.60206) was 13270810 arbitrary units and the “Globalfluo assay 3” value ([Anidulafungin] log μM 0.60206) was 14798310 arbitrary units. For the same molecule, the Mean globalfluo ([Anidulafungin] log μM 0.60206) was 13358670 arbitrary units, the “Survival rate (%)” value ([Anidulafungin] log μM 0.60206) was 18% and the “Globalfluo assay 1” value [2] was 14108250 arbitrary units. For the same molecule, the “Globalfluo assay 2” value [2] was 14242150 arbitrary units, the “Globalfluo assay 3” value [2] was 13880120 arbitrary units and the Mean globalfluo [2] was 14076840 arbitrary units. The “Survival rate (%)” value [2] was 22%, the “Globalfluo assay 1” value ([Anidulafungin] log μM 0.90309) was 13394210 arbitrary units and the “Globalfluo assay 2” value ([Anidulafungin] log μM 0.90309) was 14898570 arbitrary units. The “Globalfluo assay 3” value ([Anidulafungin] log μM 0.90309) was 14923380 arbitrary units, the Mean globalfluo ([Anidulafungin] log μM 0.90309) was 14405387 arbitrary units and the “Survival rate (%)” value ([Anidulafungin] log μM 0.90309) was 24%. The “Globalfluo assay 1” value [3] was 9674527 arbitrary units, the “Globalfluo assay 2” value [3] was 11462560 arbitrary units and the “Globalfluo assay 3” value [3] was 11240740 arbitrary units. For the same molecule, the Mean globalfluo [3] was 10792609 arbitrary units, the “Survival rate (%)” value [3] was 4% and the “Globalfluo assay 1” value [4] was 12822290 arbitrary units. The “Globalfluo assay 2” value [4] was 11197900 arbitrary units, the “Globalfluo assay 3” value [4] was 11873360 arbitrary units and the Mean globalfluo [4] was 11964517 arbitrary units. The “Survival rate (%)” value [4] was 10%, the “Globalfluo assay 1” value [5] was 11050980 arbitrary units and the “Globalfluo assay 2” value [5] was 10353030 arbitrary units. The “Globalfluo assay 3” value [5] was 11612880 arbitrary units, the Mean globalfluo [5] was 11005630 arbitrary units and the “Survival rate (%)” value [5] was 5%. The “Globalfluo assay 1” value ([Anidulafungin] log μM −1) was 9709693 arbitrary units, the “Globalfluo assay 2” value ([Anidulafungin] log μM −1) was 10543570 arbitrary units and the “Globalfluo assay 3” value ([Anidulafungin] log μM −1) was 12170290 arbitrary units. The Mean globalfluo ([Anidulafungin] log μM −1) was 10807851 arbitrary units, the “Survival rate (%)” value ([Anidulafungin] log μM −1) was 4% and the “Globalfluo assay 1” value ([Anidulafungin] log μM −2) was 10301450 arbitrary units. For the same molecule, the “Globalfluo assay 2” value ([Anidulafungin] log μM −2) was 9760112 arbitrary units, the “Globalfluo assay 3” value ([Anidulafungin] log μM −2) was 11132460 arbitrary units and the Mean globalfluo ([Anidulafungin] log μM −2) was 10398007 arbitrary units. For the same molecule, the “Survival rate (%)” value ([Anidulafungin] log μM −2) was 2%.
